From ChEMBL document CHEMBL6127058, “Overview of the PRMT6 modulators in cancer treatment: Current progress and emerged opportunity” (Eur J Med Chem, 2024)

Legend:
[1] = biological target: T1, Protein arginine N-methyltransferase 1 (Homo sapiens, UniProt Q99873); experiment: Inhibition of PRMT1 (unknown origin)
[2] = biological target: T2, Histone-arginine methyltransferase CARM1 (Homo sapiens, UniProt Q86X55); experiment: Inhibition PRMT4 (unknown origin)
T2 sequence (Q86X55 whole entry): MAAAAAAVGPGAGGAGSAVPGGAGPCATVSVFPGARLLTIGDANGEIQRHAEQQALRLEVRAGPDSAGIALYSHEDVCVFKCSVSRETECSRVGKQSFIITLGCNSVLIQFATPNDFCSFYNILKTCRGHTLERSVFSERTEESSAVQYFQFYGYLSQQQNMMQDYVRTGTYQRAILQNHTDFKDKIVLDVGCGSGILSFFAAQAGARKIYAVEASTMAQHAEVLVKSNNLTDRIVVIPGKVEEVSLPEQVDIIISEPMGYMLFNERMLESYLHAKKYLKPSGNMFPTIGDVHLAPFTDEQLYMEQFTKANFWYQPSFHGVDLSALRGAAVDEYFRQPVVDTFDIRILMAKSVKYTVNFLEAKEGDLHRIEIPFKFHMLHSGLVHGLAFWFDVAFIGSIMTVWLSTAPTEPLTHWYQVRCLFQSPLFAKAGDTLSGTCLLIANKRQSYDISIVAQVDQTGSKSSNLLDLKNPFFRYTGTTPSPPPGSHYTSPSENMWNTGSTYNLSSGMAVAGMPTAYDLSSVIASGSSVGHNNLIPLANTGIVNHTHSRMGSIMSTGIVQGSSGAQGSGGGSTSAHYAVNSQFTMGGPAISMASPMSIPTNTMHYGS

[3] = biological target: Protein arginine N-methyltransferase 8 (Homo sapiens, UniProt Q9NR22); experiment: Inhibition of PRMT8 (unknown origin)
Chain of Protein arginine N-methyltransferase 8 (Q9NR22 whole entry): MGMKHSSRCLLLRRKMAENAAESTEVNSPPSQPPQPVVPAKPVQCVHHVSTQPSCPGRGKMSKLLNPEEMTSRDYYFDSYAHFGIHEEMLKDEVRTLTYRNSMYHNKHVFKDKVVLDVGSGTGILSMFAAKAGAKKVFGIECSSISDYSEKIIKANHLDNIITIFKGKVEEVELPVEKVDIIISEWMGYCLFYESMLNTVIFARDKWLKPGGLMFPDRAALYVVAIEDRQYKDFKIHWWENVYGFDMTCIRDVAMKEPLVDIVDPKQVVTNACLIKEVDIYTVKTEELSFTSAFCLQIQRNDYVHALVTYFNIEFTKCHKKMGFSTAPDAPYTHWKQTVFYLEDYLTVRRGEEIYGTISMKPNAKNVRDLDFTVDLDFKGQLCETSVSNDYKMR

[4] = biological target: T1, Protein arginine N-methyltransferase 1; experiment: Inhibition of PRMT1 (unknown origin) by TR-FRET analysis
[5] = biological target: Protein arginine N-methyltransferase 6 (Homo sapiens, UniProt Q96LA8); experiment: Inhibition of PRMT6 (unknown origin)
Chain of Protein arginine N-methyltransferase 6 (Q96LA8 whole entry): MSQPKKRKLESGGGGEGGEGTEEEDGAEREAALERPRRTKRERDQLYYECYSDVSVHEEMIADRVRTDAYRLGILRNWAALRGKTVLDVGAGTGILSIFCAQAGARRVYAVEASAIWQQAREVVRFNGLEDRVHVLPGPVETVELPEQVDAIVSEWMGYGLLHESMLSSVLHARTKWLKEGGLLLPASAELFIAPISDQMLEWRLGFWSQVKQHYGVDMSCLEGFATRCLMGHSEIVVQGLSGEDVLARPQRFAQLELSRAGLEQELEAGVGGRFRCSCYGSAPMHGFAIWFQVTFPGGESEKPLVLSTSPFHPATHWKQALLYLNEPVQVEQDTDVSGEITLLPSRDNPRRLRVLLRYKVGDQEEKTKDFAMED

T1 sequence (Q99873 whole entry): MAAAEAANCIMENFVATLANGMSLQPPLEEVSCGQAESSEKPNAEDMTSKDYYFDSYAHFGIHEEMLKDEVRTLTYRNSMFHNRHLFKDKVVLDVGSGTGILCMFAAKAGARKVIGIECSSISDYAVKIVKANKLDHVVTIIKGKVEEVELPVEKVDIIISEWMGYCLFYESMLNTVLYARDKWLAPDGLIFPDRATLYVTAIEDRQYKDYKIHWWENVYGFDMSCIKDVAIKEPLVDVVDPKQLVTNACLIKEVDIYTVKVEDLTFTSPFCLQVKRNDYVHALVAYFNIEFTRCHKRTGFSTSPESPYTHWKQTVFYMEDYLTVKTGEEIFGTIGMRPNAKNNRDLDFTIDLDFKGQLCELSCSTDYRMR

Cc1cc(C)cc([C@@H]2c3cc(C)ccc3NC(=O)CN2C(=O)c2ccc(Br)s2)c1
IC50 [1]: > 10 µM
IC50 [2]: > 10 µM
IC50 [3]: > 10 µM

CNCCN(C)Cc1ccccc1Sc1ccccc1Cl
IC50 [4]: 0.0053 µM

C=CC(C)(C)c1cc(/C=C/C(=O)c2ccc(O)cc2)c(OC)cc1O [LICOAGROCHACONE A]
IC50 [5]: 22.3 µM
